Assay results published in PubChem BioAssay (NCI).
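All cell lines were grown in 96-well plates and treated with compound for 48 hours. Abbreviation: GI50, concentration required for 50% inhibition of growth. Definition used: TGI = concentration required for complete inhibition of growth.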

Columns and labels:
Assay in all cases: NCI anticancer screen, dose series, 48 h
OVCAR-3 ovarian = test system: OVCAR-3 ovarian
SW-620 colon = test system: SW-620 colon
CAKI-1 renal = test system: CAKI-1 renal
MDA-MB-231 breast = test system: MDA-MB-231 breast
A498 renal = test system: A498 renal
HOP-92 NSCLC = test system: HOP-92 NSCLC
RPMI-8226 leukemia = test system: RPMI-8226 leukemia
NCI/ADR-RES ovarian = test system: NCI/ADR-RES ovarian
OVCAR-5 ovarian = test system: OVCAR-5 ovarian
SNB-75 CNS = test system: SNB-75 CNS
SNB-19 CNS = test system: SNB-19 CNS
OVCAR-8 ovarian = test system: OVCAR-8 ovarian
UACC-257 melanoma = test system: UACC-257 melanoma
LOX IMVI melanoma = test system: LOX IMVI melanoma
NCI-H226 lung = test system: NCI-H226 lung
T-47D breast = test system: T-47D breast
786-0 renal = test system: 786-0 renal
SN12C renal = test system: SN12C renal
RXF 393 renal = test system: RXF 393 renal
BT-549 breast = test system: BT-549 breast
UACC-62 melanoma = test system: UACC-62 melanoma
HCT-15 colon = test system: HCT-15 colon
DU-145 prostate = test system: DU-145 prostate
ACHN renal = test system: ACHN renal
SK-MEL-5 melanoma = test system: SK-MEL-5 melanoma
A549 NSCLC = test system: A549 NSCLC
HCT-116 colon = test system: HCT-116 colon
SF-295 CNS = test system: SF-295 CNS
SR leukemia = test system: SR leukemia
SK-OV-3 ovarian = test system: SK-OV-3 ovarian
SF-539 CNS = test system: SF-539 CNS
IGROV1 ovarian = test system: IGROV1 ovarian
HOP-62 NSCLC = test system: HOP-62 NSCLC
MOLT-4 leukemia = test system: MOLT-4 leukemia
U251 CNS = test system: U251 CNS
NCI-H23 lung = test system: NCI-H23 lung
CCRF-CEM leukemia = test system: CCRF-CEM leukemia
MDA-MB-435 = test system: MDA-MB-435
COLO 205 colon = test system: COLO 205 colon
MCF7 breast = test system: MCF7 breast
HL-60(TB) leukemia = test system: HL-60(TB) leukemia
HCC-2998 colon = test system: HCC-2998 colon
MALME-3M melanoma = test system: MALME-3M melanoma
M14 melanoma = test system: M14 melanoma
SF-268 CNS = test system: SF-268 CNS
TK-10 renal = test system: TK-10 renal
K-562 leukemia = test system: K-562 leukemia
EKVX NSCLC = test system: EKVX NSCLC
HT29 colon = test system: HT29 colon
PC-3 prostate = test system: PC-3 prostate
KM12 colon = test system: KM12 colon
HS 578T breast = test system: HS 578T breast
UO-31 renal = test system: UO-31 renal
SK-MEL-28 melanoma = test system: SK-MEL-28 melanoma
NCI-H460 lung = test system: NCI-H460 lung
OVCAR-4 ovarian = test system: OVCAR-4 ovarian
SK-MEL-2 melanoma = test system: SK-MEL-2 melanoma
NCI-H522 lung = test system: NCI-H522 lung

For `COc1ccc(NC(=O)n2nc(/C=C\c3ccc(O)c(OC)c3)cc2/C=C\c2ccc(O)c(OC)c2)cc1`, the GI50 (OVCAR-3 ovarian) was 2.98 µM, the TGI (OVCAR-3 ovarian) was 8.4 µM and the GI50 (SW-620 colon) was 5.51 µM. The TGI (SW-620 colon) was 61.6 µM, the GI50 (CAKI-1 renal) was 3.6 µM and the TGI (CAKI-1 renal) was > 100 µM. It also gave a GI50 (MDA-MB-231 breast) of 4.94 µM, a TGI (MDA-MB-231 breast) of 83.5 µM and a GI50 (A498 renal) of 17.2 µM. For the same compound, the TGI (A498 renal) was 56.4 µM, the GI50 (HOP-92 NSCLC) was 7.77 µM and the TGI (HOP-92 NSCLC) was > 100 µM. It also gave a GI50 (RPMI-8226 leukemia) of 3.38 µM, a TGI (RPMI-8226 leukemia) of 29.2 µM and a GI50 (NCI/ADR-RES ovarian) of 4.28 µM. The TGI (NCI/ADR-RES ovarian) was > 100 µM, the GI50 (OVCAR-5 ovarian) was 18.8 µM and the TGI (OVCAR-5 ovarian) was 54.1 µM. It also gave a GI50 (SNB-75 CNS) of 2.35 µM, a TGI (SNB-75 CNS) of 16.3 µM and a GI50 (SNB-19 CNS) of 5.28 µM. It also gave a TGI (SNB-19 CNS) of 86.7 µM, a GI50 (OVCAR-8 ovarian) of 5.32 µM and a TGI (OVCAR-8 ovarian) of 59.9 µM. It also gave a GI50 (UACC-257 melanoma) of 16.7 µM, a TGI (UACC-257 melanoma) of 64.8 µM and a GI50 (LOX IMVI melanoma) of 3.95 µM. The TGI (LOX IMVI melanoma) was > 100 µM, the GI50 (NCI-H226 lung) was 10.7 µM and the TGI (NCI-H226 lung) was 78.6 µM. The GI50 (T-47D breast) was 3.68 µM, the TGI (T-47D breast) was 25.8 µM and the GI50 (786-0 renal) was 4 µM. For the same compound, the TGI (786-0 renal) was 24.3 µM, the GI50 (SN12C renal) was 3.05 µM and the TGI (SN12C renal) was 33.7 µM. For the same compound, the GI50 (RXF 393 renal) was 3.02 µM, the TGI (RXF 393 renal) was 8.87 µM and the GI50 (BT-549 breast) was 2.49 µM. It also gave a TGI (BT-549 breast) of 29.5 µM, a GI50 (UACC-62 melanoma) of 2.14 µM and a TGI (UACC-62 melanoma) of 6.91 µM. For the same compound, the GI50 (HCT-15 colon) was 2.98 µM, the TGI (HCT-15 colon) was > 100 µM and the GI50 (DU-145 prostate) was 3.99 µM. For the same compound, the TGI (DU-145 prostate) was 24.6 µM, the GI50 (ACHN renal) was 4.18 µM and the TGI (ACHN renal) was > 100 µM. It also gave a GI50 (SK-MEL-5 melanoma) of 3.67 µM, a TGI (SK-MEL-5 melanoma) of 16.1 µM and a GI50 (A549 NSCLC) of 5.5 µM. The TGI (A549 NSCLC) was 97.9 µM, the GI50 (HCT-116 colon) was 3.22 µM and the TGI (HCT-116 colon) was 42.9 µM. For the same compound, the GI50 (SF-295 CNS) was 6.25 µM, the TGI (SF-295 CNS) was 53.2 µM and the GI50 (SR leukemia) was 1.52 µM. For the same compound, the TGI (SR leukemia) was 12.8 µM, the GI50 (SK-OV-3 ovarian) was 3.66 µM and the TGI (SK-OV-3 ovarian) was 27.5 µM. For the same compound, the GI50 (SF-539 CNS) was 2.35 µM, the TGI (SF-539 CNS) was 13.6 µM and the GI50 (IGROV1 ovarian) was 4.49 µM. It also gave a TGI (IGROV1 ovarian) of 57 µM, a GI50 (HOP-62 NSCLC) of 3.65 µM and a TGI (HOP-62 NSCLC) of 42.8 µM. For the same compound, the GI50 (MOLT-4 leukemia) was 2.87 µM, the TGI (MOLT-4 leukemia) was 13.3 µM and the GI50 (U251 CNS) was 3.55 µM. The TGI (U251 CNS) was 20.9 µM, the GI50 (NCI-H23 lung) was 3.81 µM and the TGI (NCI-H23 lung) was 63.8 µM. It also gave a GI50 (CCRF-CEM leukemia) of 2.34 µM, a TGI (CCRF-CEM leukemia) of 32.7 µM and a GI50 (MDA-MB-435) of 1.25 µM. It also gave a TGI (MDA-MB-435) of 4.68 µM, a GI50 (COLO 205 colon) of 16.2 µM and a TGI (COLO 205 colon) of 44.3 µM. The GI50 (MCF7 breast) was 3.03 µM, the TGI (MCF7 breast) was 17 µM and the GI50 (HL-60(TB) leukemia) was 2.55 µM. For the same compound, the TGI (HL-60(TB) leukemia) was 6.69 µM, the GI50 (HCC-2998 colon) was 5.78 µM and the TGI (HCC-2998 colon) was > 100 µM. For the same compound, the GI50 (MALME-3M melanoma) was 3.66 µM, the TGI (MALME-3M melanoma) was 38.6 µM and the GI50 (M14 melanoma) was 3.15 µM. For the same compound, the TGI (M14 melanoma) was 41.5 µM, the GI50 (SF-268 CNS) was 3.21 µM and the TGI (SF-268 CNS) was 36.4 µM. For the same compound, the GI50 (TK-10 renal) was 10.2 µM, the TGI (TK-10 renal) was 95.3 µM and the GI50 (K-562 leukemia) was 2.86 µM. It also gave a TGI (K-562 leukemia) of 16.9 µM, a GI50 (EKVX NSCLC) of 6.62 µM and a TGI (EKVX NSCLC) of 83.7 µM. The GI50 (HT29 colon) was 3.52 µM, the TGI (HT29 colon) was 11 µM and the GI50 (PC-3 prostate) was 5.11 µM. For the same compound, the TGI (PC-3 prostate) was > 100 µM, the GI50 (KM12 colon) was 3.19 µM and the TGI (KM12 colon) was 20.7 µM. The GI50 (HS 578T breast) was 6.77 µM, the TGI (HS 578T breast) was 61.9 µM and the GI50 (UO-31 renal) was 1.52 µM. For the same compound, the TGI (UO-31 renal) was 36.4 µM, the GI50 (SK-MEL-28 melanoma) was 3.52 µM and the TGI (SK-MEL-28 melanoma) was 92.7 µM. For the same compound, the GI50 (NCI-H460 lung) was 4.24 µM, the TGI (NCI-H460 lung) was 31.4 µM and the GI50 (OVCAR-4 ovarian) was 5.72 µM. For the same compound, the TGI (OVCAR-4 ovarian) was 90.7 µM, the GI50 (SK-MEL-2 melanoma) was 3.23 µM and the TGI (SK-MEL-2 melanoma) was 18.1 µM. The GI50 (NCI-H522 lung) was 1.76 µM and the TGI (NCI-H522 lung) was 12.7 µM.
